pEC50: −log10 of the molar value.
Each compound was assayed against T1, human M4 muscarinic acetylcholine receptor (Homo sapiens, UniProt P08173) (assay: human FLIPR-based M4 PAM assay (CHO-K1 cells with human M4 receptor and Gαqi5, calcium dye fluorescence)). Conditions: inflection point of 4 parameter logistic fit; acetylcholine added at 20% of maximum response; read-out: M4PAM IP.
T1 construct: expressed in transfected cells
T1 sequence (P08173 1-479): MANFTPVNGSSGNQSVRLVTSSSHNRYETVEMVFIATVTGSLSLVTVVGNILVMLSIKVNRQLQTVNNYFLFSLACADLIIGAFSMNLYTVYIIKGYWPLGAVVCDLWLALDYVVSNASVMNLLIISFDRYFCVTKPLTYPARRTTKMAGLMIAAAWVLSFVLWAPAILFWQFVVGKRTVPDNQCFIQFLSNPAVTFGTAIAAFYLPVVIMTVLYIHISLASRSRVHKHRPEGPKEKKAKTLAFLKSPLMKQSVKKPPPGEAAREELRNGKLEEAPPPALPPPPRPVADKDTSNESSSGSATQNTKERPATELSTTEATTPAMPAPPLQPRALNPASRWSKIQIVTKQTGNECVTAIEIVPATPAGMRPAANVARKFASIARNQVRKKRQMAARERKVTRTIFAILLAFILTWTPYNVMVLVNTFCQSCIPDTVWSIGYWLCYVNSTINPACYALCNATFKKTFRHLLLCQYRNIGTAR
Assay type: cell-based
How it was run: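 CHO-K1 cells were loaded with calcium dye at 37 °C for ~1 h. Fluorescence (ex 470–495/em 515–575 nm) was read for 4 min after test compound at increasing concentrations, then 3.5 min after acetylcholine at an EC20; sometimes a third addition at EC70 followed. The value is the inflection point of a 4-parameter logistic fit.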
A pEC50 of 7.21 was found for `C#Cc1ccc(-c2cnn(CC(C)(C)C)c2)c(-c2ccn3cc(C)nc3c2)n1` [Example 123, 7-(6-ethynyl-3-(1-neopentyl-1H-pyrazol-4-yl)pyridin-2-yl)-2-methylimidazo[1,2-a]pyridine] in this work. A pEC50 of 6.94 was found for `Cc1nc2cc(-c3nc(C#N)ccc3-c3cnn(C[C@]4(F)C[C@H](F)C4)c3)ccc2n1C` [Example 129, 5-(1-(((1r,3r)-1,3-difluorocyclobutyl)methyl)-1H-pyrazol-4-yl)-6-(1,2-dimethyl-1H-benzo[d]imidazol-5-yl)picolinonitrile] in this work. A pEC50 of 7.12 was found for `Cc1ccc(-c2cnn(CC3(C)CCCCC3)c2)c(-c2ccc3cn(C)nc3c2)n1` [Example 2, 2-methyl-6-(6-methyl-3-{1-[(1-methylcyclohexyl)methyl]-1H-pyrazol-4-yl}pyridin-2-yl)-2H-indazole] in this work. A pEC50 of 7.04 was found for `Cc1cn2ccc(-c3nc(C#N)ccc3-c3cnn(CC(O)C(C)C)c3)cc2n1` (centres unmarked) [Example 90, 5-[1-(2-hydroxy-3-methylbutyl)-1H-pyrazol-4-yl]-6-(2-methylimidazo[1,2-a]pyridin-7-yl)pyridine-2-carbonitrile] in this work. A pEC50 of 7.40 was found for `CC(C)CCn1cc(-c2ccc(Cl)nc2-c2ccc3c(c2)C(=O)N(CC(F)(F)F)C3)cn1` [Example 111, 6-chloro-3-(1-isopentyl-1H-pyrazol-4-yl)-2-(3-oxo-2-(2,2,2-trifluoroethyl)isoindolin-5-yl)pyridin-1-ium] in this work.

Reference: patent publication US11339156B2, “3-(1H-pyrazol-4-yl)pyridine allosteric modulators of the M4 muscarinic acetylcholine receptor” (Merck Sharp & Dohme Corp., priority 2017, dated 2022)
